These are literature values, as cited in patent publication US12653874B2, “Nant cancer vaccine” (NantCell, Inc., priority 2016, dated 2026).

The test system of one series is advanced melanoma. The note with it: unresectable or advanced melanoma, result in words.
The mark [1] stands for this setting: patients receiving treatment (Conroy 2011).

As to `CC(C)(C)c1nc(-c2cccc(NS(=O)(=O)c3c(F)cccc3F)c2F)c(-c2ccnc(N)n2)s1` [Dabrafenib], the PFS result in the series on advanced melanoma was “improvement in PFS when compared to dacarbazine”.
Regarding FOLFIRINOX, in the series with pancreatic cancer (setting [1]), the “median OS” value is given as 11.1 months and the “median PFS” value is on record as 6.4 months. In addition, the “OS and PFS versus gemcitabine monotherapy” value with pancreatic cancer (result in words) is “improves OS and PFS over monotherapy with gemcitabine”.
rituximab: anti-CD20 antibody: in the series on CD20-positive NHL (rituximab refractory (RR) patients, reasonable estimate, trial data not reported), the “response rate to single agent retreatment” value is given as less than 5%. Moreover, the “patients responding to retreatment” value in the series on CD20-positive NHL (rituximab sensitive (RS) patients) is listed as “approximately 40%”.
